Measurements from patent US20220048953A1, “CELL-PENETRATING PEPTIDE” (KANEKA CORPORATION, priority 2018, published 2022).
Where no end group is shown, it is not given here. [ ]: non-standard residue; d: D form. Aib = CC(C)(N)C(=O)O; Ahx = NCCCCCC(=O)O

System: HeLa cell (Human cervix adenocarcinoma cell)
Test: Cell membrane penetrating performance evaluation (flow cytometry of fluorescein-labelled peptide conjugates)
Assay type: cell-based
Conditions: 2 μM peptide conjugate, 37° C., 2 hours, ratio to Comparative example 2 = (Fn−F1)/(F2−F1), mode values, flow cytometer
Protocol: Test example 1: Cell Membrane Penetrating Performance Evaluation
HeLa cell (Human cervix adenocarcinoma cell) was cultivated in a culture fluid containing 2 μM of the peptide conjugate of Examples 1 to 9 or Comparative examples 1 to 6 at 37° C. for 2 hours. Then, the cell was collected and stained with a propidium iodide solution to measure a fluorescence intensity using a flow cytometer, and a fluorescence intensity ratio to Comparative example 2 was calculated in accordance with the following formula.
Fluorescence intensity ratio=(Fn−F1)/(F2−F1)
Fn: Fluorescence intensity mode value of tested compound
F1: Fluorescence intensity mode value of tested compound of Comparative example 1
F2: Fluorescence intensity mode value of tested compound of Comparative example 2

Substance	Fluorescence intensity ratio
F-Ahx-(cargo peptide)-(Arg)9-(Gly)3-(Leu-Leu-Aib)-NH2 (F[Ahx]CGGSGGSCRRRRRRRRRGGGLL[Aib]-NH2; not fully specified (bridges); cysteine pairing not given here) [Example 8]	2.74
F-Ahx-(cargo peptide)-(Leu-Leu-Ala)-(Gly)3-(Arg)9-NH2 (F[Ahx]CGGSGGSCLLAGGGRRRRRRRRR-NH2; not fully specified (bridges); cysteine pairing not given here) [Example 9]	3.34
